Laboratory results reported in patent US8859571B2, “Quinazoline compounds” (GlaxoSmithKline LLC, priority 2009, dated 2014).
Structures can show the parent of a compound that is named as a salt.

Target: T1, Full length human TNNI3K (hTNNI3K) (Homo sapiens, UniProt Q59H18)
T1 construct: His-MBP-TEV-Full length human TNNI3K (hTNNI3K); His (N); MBP (N); TEV cleavage site (N); made in house; host or cells: baculovirus system (printed 'Baculokinase system')
T1 sequence (Q59H18 1-835): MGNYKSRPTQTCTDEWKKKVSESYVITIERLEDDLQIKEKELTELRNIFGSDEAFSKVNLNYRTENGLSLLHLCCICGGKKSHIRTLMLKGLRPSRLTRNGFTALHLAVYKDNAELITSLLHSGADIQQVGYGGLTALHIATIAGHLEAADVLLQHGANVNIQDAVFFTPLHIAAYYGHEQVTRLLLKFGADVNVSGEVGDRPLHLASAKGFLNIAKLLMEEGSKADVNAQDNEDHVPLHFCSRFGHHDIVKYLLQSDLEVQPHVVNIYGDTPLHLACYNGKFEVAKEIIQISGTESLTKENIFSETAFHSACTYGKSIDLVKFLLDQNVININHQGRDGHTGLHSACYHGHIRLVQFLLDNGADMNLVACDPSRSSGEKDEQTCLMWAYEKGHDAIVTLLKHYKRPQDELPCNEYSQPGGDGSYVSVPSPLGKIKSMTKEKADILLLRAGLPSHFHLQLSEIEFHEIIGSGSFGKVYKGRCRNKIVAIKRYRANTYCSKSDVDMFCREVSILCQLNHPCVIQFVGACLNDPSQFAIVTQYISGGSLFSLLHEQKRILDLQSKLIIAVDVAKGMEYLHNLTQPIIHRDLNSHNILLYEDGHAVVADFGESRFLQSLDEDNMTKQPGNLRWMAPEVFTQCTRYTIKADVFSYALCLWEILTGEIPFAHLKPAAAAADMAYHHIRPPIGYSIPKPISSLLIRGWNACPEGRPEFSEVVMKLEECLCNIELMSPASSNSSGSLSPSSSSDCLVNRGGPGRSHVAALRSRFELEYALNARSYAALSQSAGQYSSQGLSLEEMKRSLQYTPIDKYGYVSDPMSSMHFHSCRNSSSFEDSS
Experiment: Fluorescent polarization assay of compound inhibition on hTNNI3K ATP binding (Biological Assay Method I)
Details: displacement of fluorescent ligand from hTNNI3K ATP binding pocket; mean of a minimum of 2 experiments; read-out: pXC50 (the source's name) (converted)
Text: Materials: His-MBP-TEV-Full length human TNNI3K (hTNNI3K) was expressed in Baculokinase system and purified from amylase affinity column followed by Superdex200. The fluorescent ligand 5-({[2-({[3-({4-[(5-hydroxy-2-methylphenyl)amino]-2-pyrimidinyl}amino)phenyl]carbonyl}amino)ethyl]amino}carbonyl)-2-(6-hydroxy-3-oxo-3H-xanthen-9-yl)benzoic acid was used. The preparation of this fluorescent ligand is disclosed in U.S. Provisional Patent Application No. 61/237,815 filed Aug. 28, 2009, the disclosure of which is incorporated by reference herein. The other buffer components, including MgCl2 (Catalog Number M1028), Bis-Tris (Catalog Number B7535), DTT (Catalog Number D9779) and Chaps (Catalog Number C3023) were purchased from Sigma-Aldrich.
Biological Assay Method I:
A fluorescent polarization assay was used to determine does response of compound inhibition on hTNNI3K ATP binding.
Solution 1: Ten (10) mL of a 5 nM 5-({[2-({[3-({4-[(5-hydroxy-2-methylphenyl)amino]-2-pyrimidinyl}amino)phenyl]carbonyl}amino)ethyl]amino}carbonyl)-2-(6-hydroxy-3-oxo-3H-xanthen-9-yl)benzoic acid solution (Solution 1) was prepared by mixing 5 μL of 1M DTT and 80 μL of 10% (w/v) Chaps and 5 μL of a 10 μM 5-({[2-({[3-({4-[(5-hydroxy-2-methylphenyl)amino]-2-pyrimidinyl}amino)phenyl]carbonyl}amino) ethyl]amino}carbonyl)-2-(6-hydroxy-3-oxo-3H-xanthen-9-yl)benzoic acid stock solution into 9910 μL buffer (20 mM Tris, 15 mM MgCl2, pH 7.5). (Stock solution: 10 μM solution of 5-({[2-({[3-({4-[(5-hydroxy-2-methylphenyl)amino]-2-pyrimidinyl}amino)phenyl]carbonyl}amino)ethyl]amino}carbonyl)-2-(6-hydroxy-3-oxo-3H-xanthen-9-yl)benzoic acid in 100% DMSO)
Solution 2 was formed by mixing 53.8 μL of 2.6 μM hTNNI3K with a 6946.2 μL aliquot of Solution 1 (the above 5-({[2-({[3-({4-[(5-hydroxy-2-methylphenyl)amino]-2-pyrimidinyl}amino)phenyl]carbonyl}amino)ethyl]amino}carbonyl)-2-(6-hydroxy-3-oxo-3H-xanthen-9-yl)benzoic acid solution) to make up a 7 mL of mixture of hTNNI3K and 5-({[2-({[3-({4-[(5-hydroxy-2-methylphenyl)amino]-2-pyrimidinyl}amino)phenyl]carbonyl}amino)ethyl]amino}carbonyl)-2-(6-hydroxy-3-oxo-3H-xanthen-9-yl)benzoic acid (Solution 2).
Fifty (50) nL of inhibitors in DMSO (or DMSO controls) were stamped into a 384-well low volume Greiner black plate, followed by addition of 5 μL of Solution 1 to column 18 and 5 μL Solution 2 to columns 1-17 and 19-24 of the plate. The plate was then spun at 500 rpm for 30 seconds and incubated at room temperature for 60 minutes. After that, the fluorescent polarization was measured on Analyst (ex/em: 485/530 nm, Dichroic: 505). For dose response experiments, normalized data were fit by ABASE/XC50 and pXC50=(log((b−y)/(y−a)))/d−log(x), where x is the compound concentration and y is the % activity at specified compound concentration, a is the minimum % activity, b is the maximum % activity, and d is the Hill slope.
The pXC50s are averaged to determine a mean value, for a minimum of 2 experiments.

Compound	IC50 [µM]
CNS(=O)(=O)c1cc(Nc2ncnc3cc(OC)cc(OC)c23)c(N(C)C)cc1F [Example 56, 5-{[5,7-bis(methyloxy)-4-quinazolinyl]amino}-4-(dimethylamino)-2-fluoro-N-methylbenzenesulfonamide hydrochloride]	0.001 to 0.01
CNS(=O)(=O)c1ccc(OCC(F)(F)F)c(Nc2ncnc3cc(OC)c(OC(C)C)cc23)c1 [Example 44, N-methyl-3-{[6-[(1-methylethyl)oxy]-7-(methyloxy)-4-quinazolinyl]amino}-4-[(2,2,2-trifluoroethyl)oxy] benzenesulfonamide hydrochloride]	0.01 to 0.1
CNc1ccc2c(Nc3cc(S(=O)(=O)NC)ccc3N(C)C)ncnc2c1 [Example 88, 4-(dimethylamino)-N-methyl-3-((7-(methylamino)quinazolin-4-yl)amino) benzenesulfonamide]	0.01 to 0.1
CNS(=O)(=O)c1ccc(F)c(Nc2ncnc3cc(OC)cc(OC)c23)c1 [Example 38, 3-{[5,7-bis(methyloxy)-4-quinazolinyl]amino}-4-fluoro-N-methylbenzenesulfonamide hydrochloride]	0.01 to 0.1
CNS(=O)(=O)c1ccc(S(C)(=O)=O)c(Nc2ncnc3cc(OC)cc(OC)c23)c1 [Example 77, 3-{[5,7-bis(methyloxy)-4-quinazolinyl]amino}-N-methyl-4-(methylsulfonyl)benzenesulfonamide trifluoroacetate]	0.01 to 0.1
CNS(=O)(=O)c1ccc(OCC(F)(F)F)c(Nc2ncnc3cc(OCCCCl)ccc23)c1 [Example 45, 3-({7-[(3-chloropropyl)oxy]-4-quinazolinyl}amino)-N-methyl-4-[(2,2,2-trifluoroethyl)oxy] benzenesulfonamide]	0.01 to 0.1
CNS(=O)(=O)c1ccc(N(C)C)c(Nc2ncnc3cc(OCCCN4CCOCC4)ccc23)c1 [Example 73, 4-(dimethylamino)-N-methyl-3-[(7-{[3-(4-morpholinyl)propyl]oxy}-4-quinazolinyl)amino]benzenesulfonamide hydrochloride]	0.001 to 0.01
CNS(=O)(=O)c1ccc(N(C)C)c(Nc2ncnc3cc(OC)cc(OC)c23)c1 [Example 32, 3-{[5,7-bis(methyloxy)-4-quinazolinyl]amino}-4-(dimethylamino)-N-methylbenzenesulfonamide]	0.001 to 0.01
CNS(=O)(=O)c1ccc(OC(C)C(F)(F)F)c(Nc2ncnc3cc(OC)cc(OC(C)C)c23)c1 (stereo not shown) [Example 67, N-methyl-3-{[5-[(1-methylethyl)oxy]-7-(methyloxy)-4-quinazolinyl]amino}-4-[(2,2,2-trifluoro-1-methylethyl)oxy] benzenesulfonamide]	0.01 to 0.1
CNS(=O)(=O)c1ccc(N2C(C)CCC2C)c(Nc2ncnc3ccc(Cl)cc23)c1 (stereo not shown) [Example 28, 3-[(6-chloro-4-quinazolinyl)amino]-4-(2,5-dimethyl-1-pyrrolidinyl)-N-methylbenzenesulfonamide trifluoroacetate]	0.01 to 0.1
CNS(=O)(=O)c1cc(Nc2ncnc3cc(OC)cc(OC)c23)c(OC)cc1F [Example 51, 5-{[5,7-bis(methyloxy)-4-quinazolinyl]amino}-2-fluoro-N-methyl-4-(methyloxy) benzenesulfonamide trifluoroacetate]	0.01 to 0.1
CNS(=O)(=O)c1ccc(N(C)C)c(Nc2ncnc3cc(OC)c(OC)cc23)c1 [Example 1, 3-{[6,7-bis(methyloxy)-4-quinazolinyl]amino}-4-(dimethylamino)-N-methylbenzenesulfonamide hydrochloride]	0.01 to 0.1
CNS(=O)(=O)c1ccc(N2C(C)CCC2C)c(Nc2ncnc3cc(OC)c(OC)cc23)c1 (stereo not shown) [Example 27, 3-{[6,7-bis(methyloxy)-4-quinazolinyl]amino}-4-(2,5-dimethyl-1-pyrrolidinyl)-N-methylbenzenesulfonamide trifluoroacetate]	0.001 to 0.01

Results, then the compound that gave them:

IC50 [µM]	Compound
0.001 to 0.01	CCOc1cc2ncnc(Nc3cc(S(=O)(=O)NC)ccc3OCC(F)(F)F)c2cc1OCC [Example 71, 3-{[6,7-bis(ethyloxy)-4-quinazolinyl]amino}-N-methyl-4-[(2,2,2-trifluoroethyl)oxy] benzenesulfonamide]
0.01 to 0.1	CNS(=O)(=O)c1ccc(N(C)CC(F)(F)F)c(Nc2ncnc3cc(OC)cc(OC)c23)c1 [Example 36, 3-{[5,7-bis(methyloxy)-4-quinazolinyl]amino}-N-methyl-4-[methyl(2,2,2-trifluoroethyl)amino] benzenesulfonamide hydrochloride]
0.001 to 0.01	CNS(=O)(=O)c1ccc(OCC(F)(F)F)c(Nc2ncnc3cc(OC)c(OC)c(OC)c23)c1 [Example 48, N-methyl-4-[(2,2,2-trifluoroethyl)oxy]-3-{[5,6,7-tris(methyloxy)-4-quinazolinyl]amino}benzene sulfonamide hydrochloride]
0.01 to 0.1	CCOc1cc2ncnc(Nc3cc(S(=O)(=O)NC)ccc3OCC(F)(F)F)c2cc1OC [Example 80, 3-(7-ethoxy-6-methoxy-quinazolin-4-ylamino)-N-methyl-4-(2,2,2-trifluoro-ethoxy)-benzenesulfonamide trifluoroacetate]
0.01 to 0.1	CNS(=O)(=O)c1ccc(OCC(F)(F)F)c(Nc2ncnc3cc(OC)cc(OCCOC)c23)c1 [Example 60, N-methyl-3-[(7-(methyIoxy)-5-{[2-(methyloxy)ethyl]oxy}-4-quinazolinyl)amino]-4-[(2,2,2-trifluoroethyl)oxy]benzene-sulfonamide hydrochloride]
0.001 to 0.01	CNS(=O)(=O)c1ccc(OC)c(Nc2ncnc3cc(OC)cc(OC)c23)c1 [Example 37, 3-{[5,7-bis(methyloxy)-4-quinazolinyl]amino}-N-methyl-4-(methyloxy) benzenesulfonamide hydrochloride]
0.01 to 0.1	CCOc1cc2c(Nc3cc(S(=O)(=O)NC)ccc3OCC(F)(F)F)ncnc2cc1OC [Example 42, 3-{[6-(ethyloxy)-7-(methyloxy)-4-quinazolinyl]amino}-N-methyl-4-[(2,2,2-trifluoroethyl)oxy] benzenesulfonamide hydrochloride]
0.001 to 0.01	CCOc1cc(OC)cc2ncnc(Nc3cc(S(=O)(=O)NC)ccc3OC(C)C(F)(F)F)c12 (stereo not shown) [Example 66, 3-{[5-(ethyloxy)-7-(methyloxy)-4-quinazolinyl]amino}-N-methyl-4-[(2,2,2-trifluoro-1-methylethyl)oxy] benzenesulfonamide]
0.01 to 0.1	CNS(=O)(=O)c1ccc(OCC(F)(F)F)c(Nc2ncnc3cc(OC)c(I)cc23)c1 [Example 70, 3-{[6-iodo-7-(methyloxy)-4-quinazolinyl]amino}-N-methyl-4-[(2,2,2-trifluoroethyl)oxy] benzenesulfonamide]
